{"source": "paper PMC9151729", "about": "“Experimental solubility and thermodynamic modeling of empagliflozin in supercritical carbon dioxide” (Scientific Reports, 2022)", "key": {"[1]": {"test": "Total, sublimation and solvation enthalpies from Chrastil, Reformulated Chrastil and Bartle et al. model correlations of the solubility data", "type": "physicochemical", "source_text": "It is an empirical model and mathematically stated as:7 lny2P/Pref=A2+B2/T+C2ρ-ρref where A2-C2 are model constants. From parameter B2 , one can estimate sublimation enthalpy using the relation, ΔsubH=-B2R , in which R is universal gas constant.\nIt is a semi-empirical model and mathematically stated as:9 c2=ρ1κexpA4+B4/T where κ,A4andB4 are model constants.\nIt is a semi-empirical model and mathematically explained as:15 y2=RTρ1/MCFf^·^κ^′-1expA11+B11/T where κ^′,A10andB10 are model constants.\nThe density-based models considered in this work have different number of adjustable parameters. These parameters range from three to six numbers. The correlating ability of the models is depicted in Figs. 5, 6, 7, 8, 9, 10, 11. From the results, it is clear that all the models are able to correlate the data reasonably well and maximum AARD% is observed to be 10.4%. It is believed that, more parameter models are able to correlate the data more accurately. Sodefian et al., model is able to correlate the data with AARD = 5.84% and Akaike’s information criterion (AIC = − 637.59) (more relevant information is presented in the following section). Among density models, Bian et al., model (five parameters model) is able to correlate the data well and corresponding AARD% is 5.1%. […] Further, Chrastil and Reformulated Chrastil models are able to provide the total enthalpy. Whereas, Bartle et al., model parameters are able to provide sublimation enthalpy of the empagliflozin drug. From the magnitude difference between the total and sublimation enthalpies, a solvation enthalpy is calculated."}, "[2]": {"test": "Solubility of empagliflozin in supercritical carbon dioxide (isobaric-isothermal method, UV-Vis at 276 nm)", "type": "physicochemical", "details": "for solubility thermodynamic at 60 min: supercritical carbon dioxide (ScCO2), thermodynamic from solid, read-out: S (equilibrium solubility) in ScCO2", "method": "The detailed discussion of the solubility apparatus and equilibrium cell has been presented in our earlier studies (Fig. 2)[19],[25],[40],[41]. However, a brief description about the apparatus is presented in this section. This method may be classified as an isobaric-isothermal method. Each measurement was carried out with high precision and temperatures and pressures were controlled within ± 0.1 K and ± 0.1 MPa, respectively. For all measurement, 1 g of empagliflozin drug was used. As mentioned in our previous works, the equilibrium was observed within 60 min. After equilibrium, 600 µL saturated ScCO2 sample was collected via 2-status 6-way port valve in a DMSO preloaded vial. After discharging 600 µL saturated ScCO2, the port valve was washed with 1 ml DMSO. Thus, the total saturation solution was 5 ml. Each measurement was repeated thrice and their average values were reported. Mole fraction is obtained as follows:1 y2=ndrug/ndrug+nCO2 where nsolute is the moles number of the drug, and nCO2 is the moles number of CO2 in the sampling loop.\nFurther, the above quantities are given as:2 nsolute=Cs·Vs/Ms 3 nCO2=V1·ρ/MCO2 where Cs is the drug concentration in saturated sample vial in g/L. The volume of the sampling loop and vial collection are V1(L) = 600 × 10^–6 m^3 and Vs(L) = 5 × 10^–3 m^3, respectively. The Ms and MCO2 are the molecular weight of drug and CO2, respectively. Solubility is also described as4 S=CSVs/V1\nThe relation between S and y2 is5 S=ρMs/MCO2y2/1-y2\nA UV–Visible spectrophotometer (Model UNICO-4802) and DMSO solvent were used for the measurement of empagliflozin solubility. The samples were analyzed at 276 nm."}, "[3]": {"details": "308 K, 12 MPa, ScCO2 density 769 kg/m^3"}, "[4]": {"details": "308 K, 15 MPa, ScCO2 density 817 kg/m^3"}, "[5]": {"details": "308 K, 18 MPa, ScCO2 density 849 kg/m^3"}, "[6]": {"details": "308 K, 21 MPa, ScCO2 density 875 kg/m^3"}, "[7]": {"details": "308 K, 24 MPa, ScCO2 density 896 kg/m^3"}, "[8]": {"details": "308 K, 27 MPa, ScCO2 density 914 kg/m^3"}, "[9]": {"details": "318 K, 12 MPa, ScCO2 density 661 kg/m^3"}, "[10]": {"details": "318 K, 15 MPa, ScCO2 density 744 kg/m^3"}, "[11]": {"details": "318 K, 18 MPa, ScCO2 density 791 kg/m^3"}, "[12]": {"details": "318 K, 21 MPa, ScCO2 density 824 kg/m^3"}, "[13]": {"details": "318 K, 24 MPa, ScCO2 density 851 kg/m^3"}, "[14]": {"details": "318 K, 27 MPa, ScCO2 density 872 kg/m^3"}, "[15]": {"details": "328 K, 12 MPa, ScCO2 density 509 kg/m^3"}, "[16]": {"details": "328 K, 15 MPa, ScCO2 density 656 kg/m^3"}, "[17]": {"details": "328 K, 18 MPa, ScCO2 density 725 kg/m^3"}, "[18]": {"details": "328 K, 21 MPa, ScCO2 density 769 kg/m^3"}, "[19]": {"details": "328 K, 24 MPa, ScCO2 density 802 kg/m^3"}, "[20]": {"details": "328 K, 27 MPa, ScCO2 density 829 kg/m^3"}, "[21]": {"details": "338 K, 12 MPa, ScCO2 density 388 kg/m^3"}, "[22]": {"details": "338 K, 15 MPa, ScCO2 density 557 kg/m^3"}, "[23]": {"details": "338 K, 18 MPa, ScCO2 density 652 kg/m^3"}, "[24]": {"details": "338 K, 21 MPa, ScCO2 density 710 kg/m^3"}, "[25]": {"details": "338 K, 24 MPa, ScCO2 density 751 kg/m^3"}, "[26]": {"details": "338 K, 27 MPa, ScCO2 density 783 kg/m^3"}}, "note": "Like-named read-outs stand apart in the source and are kept apart here. Marks after values point to notes of the source that are not given here."}
{"molecule": "OC[C@H]1O[C@@H](c2ccc(Cl)c(Cc3ccc(O[C@H]4CCOC4)cc3)c2)[C@H](O)[C@@H](O)[C@@H]1O", "note": "[empagliflozin]", "values": [{"measurement": "Enthalpy of sublimation, ΔHsub", "setting": "[1]; obtained with Bartle et al. model", "value": "~49.653^c (approximate value) kJ/mol"}, {"measurement": "Total entalpy, ΔHtotal", "setting": "[1]; obtained with Chrastil model", "value": "30.548^a kJ/mol"}, {"measurement": "Total entalpy, ΔHtotal", "setting": "[1]; obtained with Reformulated Chrastil model", "value": "22.496^b kJ/mol"}, {"measurement": "y2 solubility in ScCO2 (mole fraction)", "setting": "[2]; [3]", "value": "0.0814 y2 × 10^4 (mole fraction)"}, {"measurement": "y2 solubility in ScCO2 (mole fraction)", "setting": "[2]; [4]", "value": "0.1266 y2 × 10^4 (mole fraction)"}, {"measurement": "y2 solubility in ScCO2 (mole fraction)", "setting": "[2]; [5]", "value": "0.1327 y2 × 10^4 (mole fraction)"}, {"measurement": "y2 solubility in ScCO2 (mole fraction)", "setting": "[2]; [6]", "value": "0.1411 y2 × 10^4 (mole fraction)"}, {"measurement": "y2 solubility in ScCO2 (mole fraction)", "setting": "[2]; [7]", "value": "0.1501 y2 × 10^4 (mole fraction)"}, {"measurement": "y2 solubility in ScCO2 (mole fraction)", "setting": "[2]; [8]", "value": "0.1806 y2 × 10^4 (mole fraction)"}, {"measurement": "y2 solubility in ScCO2 (mole fraction)", "setting": "[2]; [9]", "value": "0.0706 y2 × 10^4 (mole fraction)"}, {"measurement": "y2 solubility in ScCO2 (mole fraction)", "setting": "[2]; [10]", "value": "0.1182 y2 × 10^4 (mole fraction)"}, {"measurement": "y2 solubility in ScCO2 (mole fraction)", "setting": "[2]; [11]", "value": "0.1515 y2 × 10^4 (mole fraction)"}, {"measurement": "y2 solubility in ScCO2 (mole fraction)", "setting": "[2]; [12]", "value": "0.1601 y2 × 10^4 (mole fraction)"}, {"measurement": "y2 solubility in ScCO2 (mole fraction)", "setting": "[2]; [13]", "value": "0.2040 y2 × 10^4 (mole fraction)"}, {"measurement": "y2 solubility in ScCO2 (mole fraction)", "setting": "[2]; [14]", "value": "0.2079 y2 × 10^4 (mole fraction)"}, {"measurement": "y2 solubility in ScCO2 (mole fraction)", "setting": "[2]; [15]", "value": "0.0611 y2 × 10^4 (mole fraction)"}, {"measurement": "y2 solubility in ScCO2 (mole fraction)", "setting": "[2]; [16]", "value": "0.1044 y2 × 10^4 (mole fraction)"}, {"measurement": "y2 solubility in ScCO2 (mole fraction)", "setting": "[2]; [17]", "value": "0.1620 y2 × 10^4 (mole fraction)"}, {"measurement": "y2 solubility in ScCO2 (mole fraction)", "setting": "[2]; [18]", "value": "0.1860 y2 × 10^4 (mole fraction)"}, {"measurement": "y2 solubility in ScCO2 (mole fraction)", "setting": "[2]; [19]", "value": "0.2248 y2 × 10^4 (mole fraction)"}, {"measurement": "y2 solubility in ScCO2 (mole fraction)", "setting": "[2]; [20]", "value": "0.2260 y2 × 10^4 (mole fraction)"}, {"measurement": "y2 solubility in ScCO2 (mole fraction)", "setting": "[2]; [21]", "value": "0.0514 y2 × 10^4 (mole fraction)"}, {"measurement": "y2 solubility in ScCO2 (mole fraction)", "setting": "[2]; [22]", "value": "0.0928 y2 × 10^4 (mole fraction)"}, {"measurement": "y2 solubility in ScCO2 (mole fraction)", "setting": "[2]; [23]", "value": "0.2002 y2 × 10^4 (mole fraction)"}, {"measurement": "y2 solubility in ScCO2 (mole fraction)", "setting": "[2]; [24]", "value": "0.2266 y2 × 10^4 (mole fraction)"}, {"measurement": "y2 solubility in ScCO2 (mole fraction)", "setting": "[2]; [25]", "value": "0.2637 y2 × 10^4 (mole fraction)"}, {"measurement": "y2 solubility in ScCO2 (mole fraction)", "setting": "[2]; [26]", "value": "0.2590 y2 × 10^4 (mole fraction)"}, {"measurement": "cross over region of the solubility isotherms", "setting": "[2]; ScCO2, isotherms 308 to 338 K", "value": 16.5, "unit": "MPa"}, {"measurement": "solubility thermodynamic at 60 min", "setting": "[2]; [3]", "value": 64.3, "unit": "µg/mL"}, {"measurement": "solubility thermodynamic at 60 min", "setting": "[2]; [4]", "value": 106, "unit": "µg/mL"}, {"measurement": "solubility thermodynamic at 60 min", "setting": "[2]; [5]", "value": 116, "unit": "µg/mL"}, {"measurement": "solubility thermodynamic at 60 min", "setting": "[2]; [6]", "value": 126, "unit": "µg/mL"}, {"measurement": "solubility thermodynamic at 60 min", "setting": "[2]; [7]", "value": 138, "unit": "µg/mL"}, {"measurement": "solubility thermodynamic at 60 min", "setting": "[2]; [8]", "value": 169, "unit": "µg/mL"}, {"measurement": "solubility thermodynamic at 60 min", "setting": "[2]; [9]", "value": 47.9, "unit": "µg/mL"}, {"measurement": "solubility thermodynamic at 60 min", "setting": "[2]; [10]", "value": 90.1, "unit": "µg/mL"}, {"measurement": "solubility thermodynamic at 60 min", "setting": "[2]; [11]", "value": 123, "unit": "µg/mL"}, {"measurement": "solubility thermodynamic at 60 min", "setting": "[2]; [12]", "value": 135, "unit": "µg/mL"}, {"measurement": "solubility thermodynamic at 60 min", "setting": "[2]; [13]", "value": 181, "unit": "µg/mL"}, {"measurement": "solubility thermodynamic at 60 min", "setting": "[2]; [14]", "value": 186, "unit": "µg/mL"}, {"measurement": "solubility thermodynamic at 60 min", "setting": "[2]; [15]", "value": 31.9, "unit": "µg/mL"}, {"measurement": "solubility thermodynamic at 60 min", "setting": "[2]; [16]", "value": 70.2, "unit": "µg/mL"}, {"measurement": "solubility thermodynamic at 60 min", "setting": "[2]; [17]", "value": 120, "unit": "µg/mL"}, {"measurement": "solubility thermodynamic at 60 min", "setting": "[2]; [18]", "value": 147, "unit": "µg/mL"}, {"measurement": "solubility thermodynamic at 60 min", "setting": "[2]; [19]", "value": 185, "unit": "µg/mL"}, {"measurement": "solubility thermodynamic at 60 min", "setting": "[2]; [20]", "value": 192, "unit": "µg/mL"}, {"measurement": "solubility thermodynamic at 60 min", "setting": "[2]; [21]", "value": 20.4, "unit": "µg/mL"}, {"measurement": "solubility thermodynamic at 60 min", "setting": "[2]; [22]", "value": 53, "unit": "µg/mL"}, {"measurement": "solubility thermodynamic at 60 min", "setting": "[2]; [23]", "value": 134, "unit": "µg/mL"}, {"measurement": "solubility thermodynamic at 60 min", "setting": "[2]; [24]", "value": 165, "unit": "µg/mL"}, {"measurement": "solubility thermodynamic at 60 min", "setting": "[2]; [25]", "value": 203, "unit": "µg/mL"}, {"measurement": "solubility thermodynamic at 60 min", "setting": "[2]; [26]", "value": 208, "unit": "µg/mL"}]}
